Data on two compounds can be found in patent US9468670B2, “Melatonin-based treatment and diagnosis of bile duct disease” (Texas A&M University System, priority 2011, dated 2016).

Entries after “also recorded” stand apart in the source; their conditions may differ.

The subject of one series is Mz-ChA-1 cells. Description: Mz-ChA-1 cholangiocarcinoma xenograft in nude mice: tumor size and immunohistochemistry of tumor sections. The class given is in vivo, nude (nu/nu) mice. Here is the method:
AANAT expression was assessed in liver biopsy samples from CCA patients and controls by immunohistochemistry, and in non-malignant cholangiocytes and intra- and extrahepatic CCA lines by qPCR and immunoblots. Melatonin secretion was assessed in the supernatant of normal and CCA lines, and serum and bile from controls and CCA patients by EIA. In the CCA line Mz-ChA-1 stably overexpressing AANAT, the expression of AANAT, melatonin secretion, and CCA proliferation were studied after 48 hr of incubation. In in vivo studies, Mz-ChA-1 cells were injected Sub Q into the hind flanks of nu/nu mice. Tumors were allowed to develop and volumes were measured for 41 days during treatment with saline or melatonin (4 mg/kg BW, IP 3×wk). Tumors were analyzed for AANAT, PCNA, CK-19 and Bax by qPCR and immunoblots. Tumor tissue sections were analyzed for TUNEL, and staining for AANAT, PCNA and CK-19.
Experiments were performed to evaluate the in vivo effect of melatonin on the growth of cholangiocarcinoma cell lines implanted in the flanks of athymic mice (Francis H et al., 2009). Male BALB/c 6-wk-old nude (nu/nu) mice (Taconic Farms. Hudson, N.Y.) were kept in a temperature-controlled environment (20-22° C.) with 12-hr light-dark cycles, fed ad libitum standard mouse chow, and with free access to drinking water. Mz-ChA-1 cells (5×10^6) were suspended in 0.2 ml of extracellular matrix gel and injected subcutaneously in the rear flanks of the nude mice. After the establishment of the tumor (one week with a tumor size of ˜5 mm^3) mice (n=4) were treated with vehicle (5% ethanol in water) or melatonin (4 mg/kg BW, dissolved in 5% aqueous ethanol solution) (Sewerynek et al., 1995) by IP injections three times a week. Tumor variables were measured three times a week by an electronic caliper, and volume was determined as follows: tumor volume (mm^3)=0.5×[length (mm)×width (mm)×height (mm)]. The measurements started from the first week when the tumor mass was established. After 43 days of treatment, were anesthetized with sodium pentobarbital (50 mg/kg BW IP) and tumor tissues were harvested from the flanks of the mice. Heart, liver, and kidney tissues were collected for evaluation of organ damage by H&E staining of paraffin-embedded sections ([…]). All experiments were conducted under the guidelines of the Scott & White and Texas A&M HSC IACUC Committee. Tumors were allowed to grow until maximum allowable tumor burden was reached as set forth by the Scott & White and Texas A&M HSC IACUC tumor burden policy. Tumor tissues were fixed for 4 hr in 10% buffered formalin and embedded in low-temperature fusion paraffin. Subsequently, sections (4-5 mm) were stained: (i) with H & E for evaluation of necrosis (Francis et al., 2009); and (ii) for PCNA (a marker of proliferation) (Francis et al., 2009), cleaved caspase-3 (for measurement of apoptosis) (Arai et al., 2005), AANAT, ASMT, melatonin, MT1 and MT2 by immunohistochemistry (Francis et al., 2009). Negative controls were obtained by staining the tumor sections with non-immune serum with the omission of the primary antibody. Semiquantitative analysis for these markers was evaluated by image-analysis software, Image-Pro Plus (Media Cybernetics, Silver Springs, Md.) (Lejeune et al., 2008). Three randomly chosen fields were calculated for statistics.

For series [1] the following is noted: rat, in vivo, 1 mg/kg/day. Here is the method:
In separate experiments, normal rats treated with Vivo-Morpholino sequences of AANAT (5′-[…] (SEQ ID NO:1), to reduce the biliary expression of AANAT) or Morpholino mismatched (5′-[…] (SEQ ID NO:2)) (Gene Tools LCC) (1 mg/Kg BW/day) for 1 week via an implanted portal vein catheter. Serum, liver tissue, cholangiocytes, kidney, spleen, small intestine, stomach and heart were collected. Since our goal was to knock-down AANAT expression in the liver without inhibiting AANAT expression in other organs, we used a lower dose (1 mg/Kg/day) of Vivo-Morpholino than that described in the original study (3.0 mg/kg/day (Arora et al., 2002). This approach minimizes the amount of Vivo-Morpholino that circulates outside of the liver after slow infusion into the portal vein. See below for the surgical procedure for the implantation of the portal vein catheter by which AANAT Vivo-Morpholino or Morpholino mismatched was administered.
Biliary proliferation was determined by measurement of the percentage of PCNA-positive cholangiocytes by immunohistochemistry, and intrahepatic bile duct mass (IBDM) by immunohistochemistry for CK-19 (Mancinelli et al., 2010). Biliary apoptosis was evaluated by semiquantitative terminal deoxynucleotidyltransferase biotin-dUTP nick-end labeling (TUNEL) kit (Chemicon International, Inc., Temecula, Calif.) (Mancinelli et al., 2010). IBDM was determined as the area occupied by CK-19 positive-bile duct/total area×100 (Mancinelli et al., 2010). The morphological changes/damage in liver, spleen, kidney, heart, stomach, and small intestine were evaluated from AANAT Vivo-Morpholino- or mismatch-treated rats by H&E staining. The serum levels of the transaminases, glutamate pyruvate transaminases (SGPT) and glutamic oxaloacetic transaminase (SGOT), alkaline phosphatase (ALP) and total bilirubin were evaluated using a Dimension RxL Max Integrated Chemistry system (Dade Behring Inc., Deerfield Ill.), Chemistry Department, Scott & White.

The mark [2] stands for this setting: tumor sections, semiquantitative immunohistochemistry.

Regarding `COc1ccc2[nH]cc(CCNC(C)=O)c2c1` [melatonin], the “Tumor size / xenograft tumor growth” value in the series with Mz-ChA-1 cells (nude mice, melatonin 4 mg/kg BW IP three times a week vs. vehicle) was “significant decrease; also recorded: significantly reduced”. Further, the “Necrosis (percentage of the whole field of section)” value with Mz-ChA-1 cells (tumor sections, H&E, 4 mg/kg BW IP three times a week) was above 75%^ψ. Also, in the series on Mz-ChA-1 cells (setting [2]), the AANAT is 1584.52 ± 127, the ASMT was 46051.09 ± 13063.04, the “Cleaved caspase-3” value came out at 4490.66 ± 1053.52 and the MT1 was found to be 1847.76 ± 419.9. In addition, in the series on Mz-ChA-1 cells (setting [2]), the MT2 turned out to be 1417.96 ± 425.71, the “Melatonin (immunoreactivity)” value is 41231.48 ± 7634.43 and the PCNA is 0.25 ± 0.09 (% of total % of total nucleus.

In series [1], “AANAT Vivo-Morpholino: Vivo-Morpholino sequence of AANAT 5′-GTTCCCCAGCTTTGGAAGTGGTCCC (SEQ ID NO:1), to reduce the biliary expression of AANAT (all phosphorodiamidate morpholino (PMO); Vivo-Morpholino delivery moiety attached, position not given here, further chemistry not fully specified)” had an ALP of 230.2 ± 5.2 Units/L, an SGOT of 148.5 ± 22.5 Units/L, an SGPT of 72.25 ± 0.2 Units/L and a Total bilirubin below 0.1 mg/L.
